Data taken from article PMC5386260, “Acute development of cortical porosity and endosteal naïve bone formation from the daily but not weekly short-term administration of PTH in rabbit” (PLoS ONE, 2017).
Like-named read-outs stand apart in the source and are kept apart here.

Assay: Plasma TPTD concentration and pharmacokinetics (Rat PTH IRMA Kit, non-compartmental model)
Format: in vivo, rabbit
Conditions: for level at 1 h / level at 2 h / level at 5 min / level at 0.25 h / level at 0.5 h: female, New Zealand White (Kbl:NZW), rabbit, plasma, sc, IRMA, mean; for AUC / Cmax / Tmax / half-life: in vivo; for half-life: read-out: T1/2 (elimination half-life) of plasma TPTD (converted)
From the text: Seventeen female New Zealand White rabbits (Kbl:NZW) were purchased from Kitayama Labs (Nagano, Japan) and were allowed to acclimatize with free access to water and food for 6 days before use. Throughout the experimental study, the animals were housed individually under a 12-h light/dark cycle with free access to water, but their food intake was restricted to 120g /day (LRC4, standard diet for rabbits; Oriental Yeast, Tokyo, Japan). The animals at 6 months of age were divided into 5 groups and were subcutaneously injected with 20 or 40 μg/kg of TPTD once-daily (D20 group [n = 3] and D40 group [n = 3], 140 or 280 μg/kg of TPTD once-weekly (W140 group [n = 3] and W280 group [n = 4]) for four weeks (Table 1). For the high-dose administration of TPTD, the dosage in once-daily treatment was set at 40 μg/kg/day based on a previous study, while the dosage of once-weekly TPTD treatment was set at 280 μg/kg/week; thus, the cumulative dose of TPTD each week was the same with the two treatment frequencies. In the W140 and W280 groups, saline was administered every day, except for the days on which TPTD was administered. Saline injections were administered to control animals (C group, n = 4) once daily and to each group as a vehicle.
[…] The samples were centrifuged at 1600 x g, at 4°C for 10 minutes and plasma samples were collected in order to measure the concentration of TPTD. […]
Teriparatide acetate was synthesized at Asahi Kasei Pharma Corporation (Tokyo, Japan) and was used as a standard substance. The teriparatide acetate concentration in the rabbit plasma was quantified using a Rat PTH IRMA Kit (Immutopics, Inc., San Clemente, CA) according to the manufacturer’s instructions. The pharmacokinetic parameters were calculated using a non-compartmental model (Phoenix WinNonlin; Pharsight, Mountain View, CA).

[1] = 20 ug/kg, rabbit plasma, D20 (20 μg/kg sc once-daily), n=3, mean ± SD
[2] = 40 ug/kg, rabbit plasma, D40 (40 μg/kg sc once-daily), n=3, mean ± SD
[3] = 140 ug/kg, rabbit plasma, W140 (140 μg/kg sc once-weekly), n=3, mean ± SD
[4] = 280 ug/kg, rabbit plasma, W280 (280 μg/kg sc once-weekly), n=4, mean ± SD

- level at 1 h (140 ug/kg, Day 22, 1 hour, W140 (140 μg/kg sc once-weekly), n=3): 147 ng/mL
- level at 2 h (140 ug/kg, Day 22, 2 hour, W140 (140 μg/kg sc once-weekly), n=3): 37.8 ng/mL
- level at 5 min (280 ug/kg, Day 1, 5 min, W280 (280 μg/kg sc once-weekly), n=4): 60.6 ng/mL
- level at 0.25 h (280 ug/kg, Day 1, 15 min, W280 (280 μg/kg sc once-weekly), n=4): 177 ng/mL
- level at 0.5 h (280 ug/kg, Day 1, 30 min, W280 (280 μg/kg sc once-weekly), n=4): 295 ng/mL
- level at 1 h (280 ug/kg, Day 1, 1 hour, W280 (280 μg/kg sc once-weekly), n=4): 255 ng/mL
- level at 2 h (280 ug/kg, Day 1, 2 hour, W280 (280 μg/kg sc once-weekly), n=4): 87.4 ng/mL
- level at 5 min (280 ug/kg, Day 22, 5 min, W280 (280 μg/kg sc once-weekly), n=4): 67.7 ng/mL
- level at 0.25 h (280 ug/kg, Day 22, 15 min, W280 (280 μg/kg sc once-weekly), n=4): 232 ng/mL
- level at 0.5 h (280 ug/kg, Day 22, 30 min, W280 (280 μg/kg sc once-weekly), n=4): 356 ng/mL
- level at 1 h (280 ug/kg, Day 22, 1 hour, W280 (280 μg/kg sc once-weekly), n=4): 280 ng/mL
- level at 2 h (280 ug/kg, Day 22, 2 hour, W280 (280 μg/kg sc once-weekly), n=4): 62.4 ng/mL
- AUC [1]: 21.1 ± 3.67 ng·h/mL
- Cmax [1]: 19.8 ± 5.67 ng/mL
- Tmax [1]: 30 min
- half-life (20 ug/kg, rabbit plasma, D20 (20 μg/kg sc once-daily), n=3, non-compartmental, mean ± SD): 26.4 ± 9 min
- AUC [2]: 46.8 ± 10.7 ng·h/mL
- Cmax [2]: 34.3 ± 8.19 ng/mL
- Tmax [2]: 30 min
- half-life (40 ug/kg, rabbit plasma, D40 (40 μg/kg sc once-daily), n=3, non-compartmental, mean ± SD): 55.8 ± 19.2 min
- AUC [3]: 188 ± 35.5 ng·h/mL
- Cmax [3]: 133 ± 28 ng/mL
- Tmax [3]: 40.2 ± 17.4 min
- half-life (140 ug/kg, rabbit plasma, W140 (140 μg/kg sc once-weekly), n=3, non-compartmental, mean ± SD): 55.8 ± 9.6 min
- AUC [4]: 390 ± 75.6 ng·h/mL
- Cmax [4]: 315 ± 67.8 ng/mL
- Tmax [4]: 45 ± 17.4 min
- half-life (280 ug/kg, rabbit plasma, W280 (280 μg/kg sc once-weekly), n=4, non-compartmental, mean ± SD): 41.4 ± 16.2 min
- Tmax post-dose (rabbit plasma, D20 (20 μg/kg sc once-daily)): 30 min
- Tmax post-dose (rabbit plasma, D40 (40 μg/kg sc once-daily)): 30 min
- estimated Tmax post-dose (rabbit plasma, W140 (140 μg/kg sc once-weekly)): 40 min
- T1/2 (elimination half-life) of plasma TPTD (rabbit plasma, W140 (140 μg/kg sc once-weekly), n=3, non-compartmental, mean ± SD): 55.8 ± 9.6 min
- estimated Tmax post-dose (rabbit plasma, W280 (280 μg/kg sc once-weekly)): 45 min
SMILES: CC[C@H](C)[C@H](NC(=O)[C@H](CCC(=O)O)NC(=O)[C@H](CO)NC(=O)[C@@H](NC(=O)[C@@H](N)CO)C(C)C)C(=O)N[C@@H](CCC(N)=O)C(=O)N[C@@H](CC(C)C)C(=O)N[C@@H](CCSC)C(=O)N[C@@H](Cc1cnc[nH]1)C(=O)N[C@@H](CC(N)=O)C(=O)N[C@@H](CC(C)C)C(=O)NCC(=O)N[C@@H](CCCCN)C(=O)N[C@@H](Cc1cnc[nH]1)C(=O)N[C@@H](CC(C)C)C(=O)N[C@@H](CC(N)=O)C(=O)N[C@@H](CO)C(=O)N[C@@H](CCSC)C(=O)N[C@@H](CCC(=O)O)C(=O)N[C@@H](CCCN=C(N)N)C(=O)N[C@H](C(=O)N[C@@H](CCC(=O)O)C(=O)N[C@@H](Cc1c[nH]c2ccccc12)C(=O)N[C@@H](CC(C)C)C(=O)N[C@@H](CCCN=C(N)N)C(=O)N[C@@H](CCCCN)C(=O)N[C@@H](CCCCN)C(=O)N[C@@H](CC(C)C)C(=O)N[C@@H](CCC(N)=O)C(=O)N[C@@H](CC(=O)O)C(=O)N[C@H](C(=O)N[C@@H](Cc1cnc[nH]1)C(=O)N[C@@H](CC(N)=O)C(=O)N[C@@H](Cc1ccccc1)C(=O)O)C(C)C)C(C)C [TPTD, Teriparatide]
